{
  "source": "patent US8034817B2",
  "about": "“Treatment of bacterial diseases of the respiratory organs” (Bayer Pharma Aktiengesellschaft, priority 2003, dated 2011)",
  "key": {"P. aeruginosa DSM 12055 [1]": {"system": "P. aeruginosa DSM 12055", "experiment": "Efficacy in a model of lung infection with P. aeruginosa, treatment 1 and 4 hours after infection, microbe count in the lungs", "type": "in vivo, P. aeruginosa (host: female Wistar rats)", "settings": "lungs after 24 h relative to untreated infection control, average for 5 animals", "method": "Efficacy in a Model of Lung Infection with P. aeruginosa\n[…]. Various dose groups each of 5 rats were employed. The animals were sacrificed 24 hours after the infection, and the lungs were removed and homogenized with a Potter from Braun. The homogenates were plated out to determine the microbe count in the lungs."}, "[2]": {"settings": "average for 3 animals"}, "[3]": {"settings": "rats; serum and lungs"}, "P. aeruginosa DSM 12055 [4]": {"system": "P. aeruginosa DSM 12055", "experiment": "Further test with P. aeruginosa DSM 12055, single intratracheal dry powder treatment, microbe count in the lungs", "type": "in vivo, P. aeruginosa (host: rats)", "settings": "single intratracheal treatment 1 hour after infection, 10 mg/kg, DP-3 dry powder insufflator", "method": "A dose of 10 mg/kg was administered with the aid of a DP-3 dry powder insufflator (PENN-CENTURY, INC.). It is known from control investigations that about 5 to 20% of the administered dose reach the lungs."}, "[5]": {"settings": "0.5 h, 7.5 mg/kg intratracheally as suspension, 7.5 mg/kg"}, "[6]": {"settings": "1 h, 7.5 mg/kg intratracheally as suspension, 7.5 mg/kg"}, "[7]": {"settings": "3 h, 7.5 mg/kg intratracheally as suspension, 7.5 mg/kg"}, "[8]": {"settings": "5 h, 7.5 mg/kg intratracheally as suspension, 7.5 mg/kg"}},
  "note": "Counter-ions that a name gives are not always drawn. Like-named read-outs stand apart in the source and are kept apart here.",
  "data": [
    {"smiles": "Cl.O=C(O)c1cn(C2CC2)c2cc(N3CCNCC3)c(F)cc2c1=O", "note": "[ciprofloxacin hydrochloride]", "values": [
      {"measurement": "Reduction in microbe count", "setting": "P. aeruginosa DSM 12055 [1]; 0.8 mg/kg i.t.", "result": "−1.8", "unit": "log units"},
      {"measurement": "Reduction in microbe count", "setting": "P. aeruginosa DSM 12055 [1]; 2.5 mg/kg i.t.", "result": "−1.1", "unit": "log units"},
      {"measurement": "Reduction in microbe count", "setting": "P. aeruginosa DSM 12055 [1]; 2.5 mg/kg i.v.", "result": "−2.8", "unit": "log units"},
      {"measurement": "Reduction in microbe count", "setting": "P. aeruginosa DSM 12055 [1]; 7.5 mg/kg i.t.", "result": "−2.8", "unit": "log units"},
      {"measurement": "Reduction in microbe count", "setting": "P. aeruginosa DSM 12055 [1]; 7.5 mg/kg i.v.", "result": "−3.5", "unit": "log units"},
      {"measurement": "Reduction in microbe count", "setting": "P. aeruginosa DSM 12055 [1]; 22.5 mg/kg i.v.", "result": "−5.4", "unit": "log units"},
      {"measurement": "Reduction in microbe count", "setting": "P. aeruginosa DSM 12055 [1]; 67.5 mg/kg i.v.", "result": "−8.8", "unit": "log units"},
      {"measurement": "Lung concentration", "setting": "[2]; 0.25 h, 7.5 mg/kg intravenously as solution", "result": 0.61, "unit": "µg/mL"},
      {"measurement": "Lung concentration", "setting": "[2]; 0.5 h, 7.5 mg/kg intratracheally as solution", "result": 1.67, "unit": "µg/mL"},
      {"measurement": "Lung concentration", "setting": "[2]; 0.5 h, 7.5 mg/kg intravenously as solution", "result": 0.35, "unit": "µg/mL"},
      {"measurement": "Lung concentration", "setting": "[2]; 1 h, 7.5 mg/kg intratracheally as solution", "result": 0.63, "unit": "µg/mL"},
      {"measurement": "Lung concentration", "setting": "[2]; 1 h, 7.5 mg/kg intravenously as solution", "result": 0.14, "unit": "µg/mL"},
      {"measurement": "Lung concentration", "setting": "[2]; 3 h, 7.5 mg/kg intratracheally as solution", "result": 0.10, "unit": "µg/mL"},
      {"measurement": "Lung concentration", "setting": "[2]; 3 h, 7.5 mg/kg intravenously as solution", "result": 0, "unit": "µg/mL"},
      {"measurement": "Lung concentration", "setting": "[2]; 5 h, 7.5 mg/kg intratracheally as solution", "result": 0, "unit": "µg/mL"},
      {"measurement": "Lung concentration", "setting": "[2]; 5 h, 7.5 mg/kg intravenously as solution", "result": 0, "unit": "µg/mL"}
    ]},
    {"smiles": "O=C(O)c1cn(C2CC2)c2cc(N3CCNCC3)c(F)cc2c1=O", "note": "[ciprofloxacin betaine (laboratory product)]", "values": [
      {"measurement": "Reduction in microbe count", "setting": "P. aeruginosa DSM 12055 [1]; 0.8 mg/kg i.t.", "result": "−4.0", "unit": "log units"},
      {"measurement": "Reduction in microbe count", "setting": "P. aeruginosa DSM 12055 [1]; 2.5 mg/kg i.t.", "result": "−5.8", "unit": "log units"},
      {"measurement": "Reduction in microbe count", "setting": "P. aeruginosa DSM 12055 [1]; 7.5 mg/kg i.t.", "result": "−10", "unit": "log units"},
      {"measurement": "Lung concentration", "setting": "[2]; [5]", "result": 44.3, "unit": "µg/mL"},
      {"measurement": "Lung concentration", "setting": "[2]; [6]", "result": 40.1, "unit": "µg/mL"},
      {"measurement": "Lung concentration", "setting": "[2]; [7]", "result": 12.6, "unit": "µg/mL"},
      {"measurement": "Lung concentration", "setting": "[2]; [8]", "result": 7.21, "unit": "µg/mL"}
    ]},
    {"smiles": "COc1c(N2C[C@@H]3CCCN[C@@H]3C2)c(F)cc2c(=O)c(C(=O)O)cn(C3CC3)c12", "note": "[moxifloxacin hydrochloride, Moxifloxacin hydrochloride]", "values": [
      {"measurement": "Fall of the concentration after intratracheal administration to the level reached orally", "setting": "[3]", "result": "within about an hour"}
    ]},
    {"smiles": "O=C(O)c1cn(C2CC2)c2cc(N3CCNCC3)c(F)cc2c1=O", "note": "[ciprofloxacin betaine (micronized), ciprofloxacin betaine]", "values": [
      {"measurement": "Reduction of the microbe count in the lungs compared with an untreated control group", "setting": "P. aeruginosa DSM 12055 [4]", "result": "more than 6 log units"},
      {"measurement": "Lung concentration", "setting": "[2]; 0.25 h, 7.5 mg/kg intratracheally as suspension, 7.5 mg/kg", "result": 76, "unit": "µg/mL"},
      {"measurement": "Lung concentration", "setting": "[2]; [5]", "result": 76, "unit": "µg/mL"},
      {"measurement": "Lung concentration", "setting": "[2]; [6]", "result": 76, "unit": "µg/mL"},
      {"measurement": "Lung concentration", "setting": "[2]; [7]", "result": 54, "unit": "µg/mL"},
      {"measurement": "Lung concentration", "setting": "[2]; [8]", "result": 54, "unit": "µg/mL"}
    ]}
  ]
}
